Measured values: the supplement of paper PMC13380429

How the values were obtained:
Conditions in all cases: 72 h
Calu-3 [1] = assay: relative viability EC50 (midpoint between 100% and the lowest measured viability); higher = less toxic
Vero E6 [2] = assay: as above
U2OS [3] = assay: as above
HepG2 [4] = assay: as above
Caco-2 [5] = assay: as above
Calu-3 [6] = assay: drug sensitivity score (DSS) for viability; higher = more toxic; extreme values may be limits of the assay
Vero E6 [7] = assay: as above
U2OS [8] = assay: as above
HepG2 [9] = assay: as above
Caco-2 [10] = assay: as above
Calu-3 [11] = assay: cell viability relative to DMSO; higher = less toxic
Vero E6 [12] = assay: as above
U2OS [13] = assay: as above
HepG2 [14] = assay: as above
Caco-2 [15] = assay: as above

SMILES	relative viability EC50 (Calu-3 [1])	relative viability EC50 (Vero E6 [2])	relative viability EC50 (U2OS [3])	relative viability EC50 (HepG2 [4])	relative viability EC50 (Caco-2 [5])	drug sensitivity score (Calu-3 [6])	drug sensitivity score (Vero E6 [7])	drug sensitivity score (U2OS [8])	drug sensitivity score (HepG2 [9])	drug sensitivity score (Caco-2 [10])	cell viability (Calu-3 [11]; 1 nM)	cell viability (Calu-3 [11]; 10 nM)	cell viability (Calu-3 [11]; 100 nM)	cell viability (Calu-3 [11]; 1000 nM)	cell viability (Calu-3 [11]; 10000 nM)	cell viability (Vero E6 [12]; 1 nM)	cell viability (Vero E6 [12]; 10 nM)	cell viability (Vero E6 [12]; 100 nM)	cell viability (Vero E6 [12]; 1000 nM)	cell viability (Vero E6 [12]; 10000 nM)	cell viability (U2OS [13]; 1 nM)	cell viability (U2OS [13]; 10 nM)	cell viability (U2OS [13]; 100 nM)	cell viability (U2OS [13]; 1000 nM)	cell viability (U2OS [13]; 10000 nM)	cell viability (HepG2 [14]; 1 nM)	cell viability (HepG2 [14]; 10 nM)	cell viability (HepG2 [14]; 100 nM)	cell viability (HepG2 [14]; 1000 nM)	cell viability (HepG2 [14]; 10000 nM)	cell viability (Caco-2 [15]; 1 nM)	cell viability (Caco-2 [15]; 10 nM)	cell viability (Caco-2 [15]; 100 nM)	cell viability (Caco-2 [15]; 1000 nM)	cell viability (Caco-2 [15]; 10000 nM)
OC[C@@H](O)[C@H]1O[C@@H]2O[C@H](C(Cl)(Cl)Cl)O[C@@H]2[C@H]1O [chloralose]	> 10 µM	> 10 µM	> 10 µM	> 10 µM	> 10 µM	0	0	0	0	0	93.7%	93.8%	95.5%	104%	98.8%	98.1%	99%	98.8%	95.9%	97.8%	98.1%	106%	98.5%	99.6%	98.4%	98.1%	103%	102%	98.9%	89.2%	101%	103%	80.5%	101%	87.4%
CCCCC(=O)O[C@H]1CC[C@H]2[C@@H]3CCc4cc(O)ccc4[C@H]3CC[C@]12C [ESTRADIOL VALERATE]	> 10 µM	> 10 µM	> 10 µM	> 10 µM	> 10 µM	0.6	0	0	0	0.1	99.8%	104%	96.4%	97.8%	83.8%	101%	102%	103%	99.5%	100%	106%	108%	103%	106%	96.5%	109%	106%	101%	97.6%	108%	104%	94.6%	97%	105%	85.8%
CC[C@H]1OC(=O)[C@H](C)[C@@H](O[C@H]2C[C@@](C)(OC)[C@@H](O)[C@H](C)O2)[C@H](C)[C@@H](O[C@@H]2O[C@H](C)C[C@H](N(C)C)[C@H]2O)[C@](C)(O)C[C@@H](C)C(=O)[C@H](C)[C@@H](O)[C@]1(C)O [erythromycin]	> 10 µM	> 10 µM	> 10 µM	> 10 µM	> 10 µM	0.5	0	0	0	0	94.2%	102%	97.5%	90%	86.9%	101%	97.9%	101%	97.4%	99.5%	104%	102%	102%	98%	101%	100%	83.5%	98.1%	91.4%	90.4%	97.9%	100%	97.2%	94.4%	96.4%
O=C(Nc1ccc2c(O)cc(S(=O)(=O)O)cc2c1)Nc1ccc2c(O)cc(S(=O)(=O)O)cc2c1 [AMI-1]	> 10 µM	> 10 µM	> 10 µM	> 10 µM	> 10 µM	0	0	0	0	0	104%	100%	100%	109%	99.8%	97.2%	102%	102%	106%	96%	103%	102%	99%	102%	101%	101%	110%	106%	107%	94.3%	87%	97.8%	92.8%	93.5%	97.2%
C[C@]12CCC(=O)C=C1CC[C@@H]1[C@@H]2[C@@H](O)C[C@@]2(C)[C@H]1CC[C@]2(O)C(=O)COP(=O)(O)O [hydrocortisone-phosphate]	> 10 µM	> 10 µM	> 10 µM	> 10 µM	> 10 µM	0	0	0	0.1	0	98.3%	102%	98.5%	99.8%	93.8%	106%	100%	106%	100%	104%	101%	101%	97.1%	100%	95%	99.2%	99.8%	105%	89.5%	94.3%	100%	101%	103%	110%	94.1%
O=C1c2cccc(O)c2C(=O)c2c(O)cc(CO)cc21 [aloe-emodin]	> 10 µM	> 10 µM	> 10 µM	> 10 µM	> 10 µM	0	0	0	0	0	93.4%	92.5%	103%	97.8%	97.6%	103%	104%	101%	102%	98.5%	97%	98%	98.6%	96.9%	102%	95%	100%	90.6%	105%	95.2%	99.3%	104%	98.8%	92.4%	91.8%
